According to patent publication US20240116920A1 (priority 2020, published 2024):

Columns and labels:
[1] = test system: LX-2 human hepatic stellate cells; assay: TGF-β-induced LX-2 cell proliferation (CCK8); type: cell-based
[2] = test system: JAK1/STAT3 signaling; assay: Immunobit cell-based pSTAT3 and pSTAT5 immunoassay; parameters: species or system human
[3] = molecular target: TYK2 (Homo sapiens, UniProt P29597); assay: biochemical
[4] = molecular target: JAK2 (Homo sapiens, UniProt O60674); assay: biochemical
[5] = molecular target: T1, JAK3 (Homo sapiens, UniProt P52333); assay: biochemical
T1 sequence (P52333 1-1124): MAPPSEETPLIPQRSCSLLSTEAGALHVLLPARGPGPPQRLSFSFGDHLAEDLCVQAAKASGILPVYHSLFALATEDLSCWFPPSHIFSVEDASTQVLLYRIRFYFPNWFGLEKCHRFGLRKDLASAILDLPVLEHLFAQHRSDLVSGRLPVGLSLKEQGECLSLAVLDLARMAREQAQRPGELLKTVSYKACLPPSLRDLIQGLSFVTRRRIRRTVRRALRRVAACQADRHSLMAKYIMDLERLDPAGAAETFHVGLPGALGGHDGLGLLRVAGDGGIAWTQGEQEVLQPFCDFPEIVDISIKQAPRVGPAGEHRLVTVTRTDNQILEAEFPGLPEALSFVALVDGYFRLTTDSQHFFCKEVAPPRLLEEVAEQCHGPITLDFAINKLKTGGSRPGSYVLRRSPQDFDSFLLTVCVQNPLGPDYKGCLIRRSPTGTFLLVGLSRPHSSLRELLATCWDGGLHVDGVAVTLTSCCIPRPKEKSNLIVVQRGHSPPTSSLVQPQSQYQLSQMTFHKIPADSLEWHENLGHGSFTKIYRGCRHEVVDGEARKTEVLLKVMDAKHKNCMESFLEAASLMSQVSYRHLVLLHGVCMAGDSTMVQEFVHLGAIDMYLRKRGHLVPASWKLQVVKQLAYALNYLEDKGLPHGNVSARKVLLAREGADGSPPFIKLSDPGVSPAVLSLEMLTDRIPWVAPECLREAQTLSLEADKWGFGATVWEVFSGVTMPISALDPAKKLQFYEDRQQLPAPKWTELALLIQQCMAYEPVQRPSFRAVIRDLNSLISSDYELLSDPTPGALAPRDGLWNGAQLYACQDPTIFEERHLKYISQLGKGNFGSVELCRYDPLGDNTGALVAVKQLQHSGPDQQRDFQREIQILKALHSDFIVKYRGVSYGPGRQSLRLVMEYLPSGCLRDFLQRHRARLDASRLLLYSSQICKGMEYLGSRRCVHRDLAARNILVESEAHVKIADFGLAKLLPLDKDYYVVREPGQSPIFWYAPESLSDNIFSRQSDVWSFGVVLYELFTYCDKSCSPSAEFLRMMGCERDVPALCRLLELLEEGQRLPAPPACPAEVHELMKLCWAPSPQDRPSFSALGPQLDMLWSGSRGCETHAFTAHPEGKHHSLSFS

JAK2, sequence (O60674 whole entry): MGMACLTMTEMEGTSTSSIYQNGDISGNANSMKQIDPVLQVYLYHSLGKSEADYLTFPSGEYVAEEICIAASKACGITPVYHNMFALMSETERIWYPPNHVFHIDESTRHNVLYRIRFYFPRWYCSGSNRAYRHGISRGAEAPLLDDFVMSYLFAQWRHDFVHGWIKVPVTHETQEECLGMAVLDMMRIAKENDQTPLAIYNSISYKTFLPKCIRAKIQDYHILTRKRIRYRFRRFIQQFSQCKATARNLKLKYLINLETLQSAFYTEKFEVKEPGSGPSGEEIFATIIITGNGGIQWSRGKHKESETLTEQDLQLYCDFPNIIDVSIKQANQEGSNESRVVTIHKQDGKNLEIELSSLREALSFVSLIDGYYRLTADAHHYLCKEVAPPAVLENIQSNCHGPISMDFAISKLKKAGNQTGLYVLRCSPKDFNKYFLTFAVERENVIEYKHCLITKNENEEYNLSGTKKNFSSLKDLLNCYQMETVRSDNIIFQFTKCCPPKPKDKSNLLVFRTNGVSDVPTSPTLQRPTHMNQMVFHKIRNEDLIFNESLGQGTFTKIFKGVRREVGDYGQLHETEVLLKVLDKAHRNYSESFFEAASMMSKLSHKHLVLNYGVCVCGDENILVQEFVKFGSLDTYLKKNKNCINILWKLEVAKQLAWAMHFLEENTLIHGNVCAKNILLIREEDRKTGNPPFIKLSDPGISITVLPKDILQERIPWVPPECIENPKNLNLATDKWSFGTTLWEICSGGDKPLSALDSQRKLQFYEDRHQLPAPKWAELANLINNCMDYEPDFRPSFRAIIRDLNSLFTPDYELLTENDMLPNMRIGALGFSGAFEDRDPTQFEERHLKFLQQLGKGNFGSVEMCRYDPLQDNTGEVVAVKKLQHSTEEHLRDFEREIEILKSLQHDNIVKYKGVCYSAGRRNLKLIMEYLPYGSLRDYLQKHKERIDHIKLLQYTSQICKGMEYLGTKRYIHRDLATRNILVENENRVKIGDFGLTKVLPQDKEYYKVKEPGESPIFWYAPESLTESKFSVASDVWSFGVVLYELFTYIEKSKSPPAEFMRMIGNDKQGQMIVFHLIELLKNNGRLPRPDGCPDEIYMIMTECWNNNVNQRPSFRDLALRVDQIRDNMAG
TYK2, sequence (P29597 whole entry): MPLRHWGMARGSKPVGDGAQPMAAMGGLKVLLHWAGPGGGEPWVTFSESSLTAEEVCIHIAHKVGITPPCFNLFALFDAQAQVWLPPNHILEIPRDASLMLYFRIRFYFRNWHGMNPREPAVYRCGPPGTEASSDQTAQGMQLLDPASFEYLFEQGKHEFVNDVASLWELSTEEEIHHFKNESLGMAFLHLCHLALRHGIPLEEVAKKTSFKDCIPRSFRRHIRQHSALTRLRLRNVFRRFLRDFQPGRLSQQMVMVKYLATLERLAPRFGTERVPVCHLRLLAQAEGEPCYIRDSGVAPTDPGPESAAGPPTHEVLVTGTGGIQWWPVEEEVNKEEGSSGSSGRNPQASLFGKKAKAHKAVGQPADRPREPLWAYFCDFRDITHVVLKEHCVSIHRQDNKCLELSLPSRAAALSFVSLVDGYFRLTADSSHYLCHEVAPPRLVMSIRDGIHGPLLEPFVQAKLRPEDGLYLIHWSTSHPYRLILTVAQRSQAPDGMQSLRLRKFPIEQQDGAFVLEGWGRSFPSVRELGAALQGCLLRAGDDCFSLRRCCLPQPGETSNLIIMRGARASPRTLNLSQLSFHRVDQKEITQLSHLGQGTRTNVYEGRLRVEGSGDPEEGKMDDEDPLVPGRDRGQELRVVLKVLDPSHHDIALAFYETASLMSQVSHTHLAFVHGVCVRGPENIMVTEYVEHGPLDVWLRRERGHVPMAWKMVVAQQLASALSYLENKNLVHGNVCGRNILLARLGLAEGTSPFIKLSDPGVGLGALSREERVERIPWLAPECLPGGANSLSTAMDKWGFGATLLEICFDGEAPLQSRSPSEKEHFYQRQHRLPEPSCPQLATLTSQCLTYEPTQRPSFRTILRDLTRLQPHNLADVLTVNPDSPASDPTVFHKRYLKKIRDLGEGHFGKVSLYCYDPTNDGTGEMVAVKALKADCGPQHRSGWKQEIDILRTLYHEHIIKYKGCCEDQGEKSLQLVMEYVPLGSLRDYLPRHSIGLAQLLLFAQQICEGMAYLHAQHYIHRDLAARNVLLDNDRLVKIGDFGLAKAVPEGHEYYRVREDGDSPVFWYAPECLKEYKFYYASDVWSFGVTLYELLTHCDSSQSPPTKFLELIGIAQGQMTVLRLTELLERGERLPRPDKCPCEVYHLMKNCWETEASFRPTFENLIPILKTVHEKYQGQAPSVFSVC

SMILES: COC(=O)c1ccc2c(c1)NC(=O)/C2=C(\Nc1ccc(N(C)C(=O)CN2CCN(C)CC2)cc1)c1ccccc1 [nintedanib]
- inhibitory effect on LX-2 proliferation induced by TGF-β ([1]; LX-2, TGF-β-induced, CCK8): dose-dependent inhibitory effects
- inhibitory effect on LX-2 cell growth versus tofacitinib or filgotinib ([1]; incubation with TGF-β for 72 h): superior to those of tofacitinib or filgotinib
- effect on JAK/STAT signaling (pSTAT3, pSTAT5) [2]: did not affect the JAK/STAT pathway

SMILES: CNC(=O)c1cnc2[nH]ccc2c1N[C@@H]1CCN(Cc2cnc(C(F)(F)F)nc2)[C@H](C)C1 (racemic) [compound 49]
- IC50 [3]: 36.9 nM
- IC50 [4]: 8.78 nM
- IC50 [5]: 8.39 nM

SMILES: O=C(Nc1nc2cccc(-c3ccc(CN4CCS(=O)(=O)CC4)cc3)n2n1)C1CC1 [filgotinib]
- effect on JAK/STAT signaling (pSTAT3, pSTAT5) [2]: reduced pSTAT3 and pSTAT5, but with less effect than 31g
